PubChem BioAssay AID1919001 (Molecular Pharmacology Branch, DTP, NCI, 2023)
pIC50: −log10 of the molar value.

Tested on: 699152-130-R-J1-PDC complex spheroid growth
Assay: Anticancer human tumor 699152-130-R-J1-PDC patient-derived pancreatic carcinoma cell line growth inhibition [AhR]
Conditions: for pIC50: curve of first compound; for viability, T/C: stronger effect = lower value
How it was run: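 Spheroids combined tumor cells with HUVEC endothelial cells and human MSCs as stroma. AhR antagonists were paired with standard or investigational drugs, each dosed in half-log steps down from near clinical Cmax, or from 10 microM where Cmax was unknown.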

[1] = second compound 0.1 µM, first compound 0.0316 µM
[2] = second compound 0.1 µM, first compound 0.1 µM
[3] = second compound 0.1 µM, first compound 0.316 µM
[4] = second compound 0.1 µM, first compound 1 µM
[5] = second compound 0.1 µM, first compound 3.16 µM
[6] = second compound 0.1 µM, first compound 10 µM
[7] = second compound 0.316 µM, first compound 0.0316 µM
[8] = second compound 0.316 µM, first compound 0.1 µM
[9] = second compound 0.316 µM, first compound 0.316 µM
[10] = second compound 0.316 µM, first compound 1 µM
[11] = second compound 0.316 µM, first compound 3.16 µM
[12] = second compound 0.316 µM, first compound 10 µM
[13] = second compound 1 µM, first compound 0.0316 µM
[14] = second compound 1 µM, first compound 0.1 µM
[15] = second compound 1 µM, first compound 0.316 µM
[16] = second compound 1 µM, first compound 1 µM
[17] = second compound 1 µM, first compound 3.16 µM
[18] = second compound 1 µM, first compound 10 µM
[19] = second compound 3.16 µM, first compound 0.0316 µM
[20] = second compound 3.16 µM, first compound 0.1 µM
[21] = second compound 3.16 µM, first compound 0.316 µM
[22] = second compound 3.16 µM, first compound 1 µM
[23] = second compound 3.16 µM, first compound 3.16 µM
[24] = second compound 3.16 µM, first compound 10 µM
[25] = second compound 10 µM, first compound 0.0316 µM
[26] = second compound 10 µM, first compound 0.1 µM
[27] = second compound 10 µM, first compound 0.316 µM
[28] = second compound 10 µM, first compound 1 µM
[29] = second compound 10 µM, first compound 3.16 µM
[30] = second compound 10 µM, first compound 10 µM
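Further: compound exposure lasted 7 days after spheroids had grown for 3 days.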

## Nc1ccccc1NC(=O)c1ccc(CNC(=O)OCc2cccnc2)cc1 + Cc1cncc(-c2nc(NCCc3c[nH]c4ccccc34)c3ncn(C(C)C)c3n2)c1
Second compound 0.1 µM
  pIC50: 5.14
Second compound 0.316 µM
  pIC50: 5.19
Second compound 1 µM
  pIC50: 5.09
Second compound 3.16 µM
  pIC50: 5.27
Second compound 10 µM
  pIC50: > 7.50
[1]
  viability, T/C: 94.9%
[2]
  viability, T/C: 96.5%
[3]
  viability, T/C: 99.3%
[4]
  viability, T/C: 107%
[5]
  viability, T/C: 77%
[6]
  viability, T/C: 39.1%
[7]
  viability, T/C: 110%
[8]
  viability, T/C: 97.2%
[9]
  viability, T/C: 105%
[10]
  viability, T/C: 105%
[11]
  viability, T/C: 72.3%
[12]
  viability, T/C: 36.5%
[13]
  viability, T/C: 118%
[14]
  viability, T/C: 116%
[15]
  viability, T/C: 113%
[16]
  viability, T/C: 108%
[17]
  viability, T/C: 72%
[18]
  viability, T/C: 45.1%
[19]
  viability, T/C: 77.8%
[20]
  viability, T/C: 81.4%
[21]
  viability, T/C: 70.3%
[22]
  viability, T/C: 64.2%
[23]
  viability, T/C: 68.1%
[24]
  viability, T/C: 33.8%
[25]
  viability, T/C: 11.6%
[26]
  viability, T/C: 7.91%
[27]
  viability, T/C: 7.77%
[28]
  viability, T/C: 9.69%
[29]
  viability, T/C: 7.99%
[30]
  viability, T/C: 3.12%

## Nc1ccn(C2OC(CO)C(O)C2(F)F)c(=O)n1 (stereo not given) + CC(CO)NC(=O)c1cc(-c2ccc(Cl)cc2)nn(-c2cnn(C)c2)c1=O
Second compound 0.1 µM
  pIC50: 5.24
Second compound 0.316 µM
  pIC50: 5.00
Second compound 1 µM
  pIC50: 5.15
Second compound 3.16 µM
  pIC50: 5.54
Second compound 10 µM
  pIC50: 5.04
[1]
  viability, T/C: 67.1%
[2]
  viability, T/C: 73.4%
[3]
  viability, T/C: 62%
[4]
  viability, T/C: 56.4%
[5]
  viability, T/C: 52.6%
[6]
  viability, T/C: 48.1%
[7]
  viability, T/C: 67%
[8]
  viability, T/C: 73.1%
[9]
  viability, T/C: 50.8%
[10]
  viability, T/C: 53.6%
[11]
  viability, T/C: 50.6%
[12]
  viability, T/C: 47%
[13]
  viability, T/C: 68.8%
[14]
  viability, T/C: 69.5%
[15]
  viability, T/C: 63.5%
[16]
  viability, T/C: 61.5%
[17]
  viability, T/C: 56.7%
[18]
  viability, T/C: 47.1%
[19]
  viability, T/C: 66.1%
[20]
  viability, T/C: 67.4%
[21]
  viability, T/C: 55.8%
[22]
  viability, T/C: 54.3%
[23]
  viability, T/C: 49.2%
[24]
  viability, T/C: 46.3%
[25]
  viability, T/C: 68.9%
[26]
  viability, T/C: 70.7%
[27]
  viability, T/C: 62%
[28]
  viability, T/C: 60.9%
[29]
  viability, T/C: 53.9%
[30]
  viability, T/C: 50%

## CCc1c2c(nc3ccc(O)cc13)-c1cc3c(c(=O)n1C2)COC(=O)[C@]3(O)CC + Cc1cncc(-c2nc(NCCc3c[nH]c4ccccc34)c3ncn(C(C)C)c3n2)c1
Second compound 0.1 µM
  pIC50: 7.41
Second compound 0.316 µM
  pIC50: 7.48
Second compound 1 µM
  pIC50: 7.16
Second compound 3.16 µM
  pIC50: 7.91
Second compound 10 µM
  pIC50: > 9.02
Second compound 0.1 µM, first compound 0.000949 µM
  viability, T/C: 96.7%
Second compound 0.1 µM, first compound 0.003 µM
  viability, T/C: 91.2%
Second compound 0.1 µM, first compound 0.00949 µM
  viability, T/C: 60.3%
Second compound 0.1 µM, first compound 0.03 µM
  viability, T/C: 56.5%
Second compound 0.1 µM, first compound 0.0949 µM
  viability, T/C: 41%
Second compound 0.1 µM, first compound 0.3 µM
  viability, T/C: 29%
Second compound 0.316 µM, first compound 0.000949 µM
  viability, T/C: 92.4%
Second compound 0.316 µM, first compound 0.003 µM
  viability, T/C: 84.3%
Second compound 0.316 µM, first compound 0.00949 µM
  viability, T/C: 61.3%
Second compound 0.316 µM, first compound 0.03 µM
  viability, T/C: 54.4%
Second compound 0.316 µM, first compound 0.0949 µM
  viability, T/C: 37.6%
Second compound 0.316 µM, first compound 0.3 µM
  viability, T/C: 28.7%
Second compound 1 µM, first compound 0.000949 µM
  viability, T/C: 102%
Second compound 1 µM, first compound 0.003 µM
  viability, T/C: 94.2%
Second compound 1 µM, first compound 0.00949 µM
  viability, T/C: 70%
Second compound 1 µM, first compound 0.03 µM
  viability, T/C: 58.8%
Second compound 1 µM, first compound 0.0949 µM
  viability, T/C: 50.9%
Second compound 1 µM, first compound 0.3 µM
  viability, T/C: 30.2%
Second compound 3.16 µM, first compound 0.000949 µM
  viability, T/C: 74.8%
Second compound 3.16 µM, first compound 0.003 µM
  viability, T/C: 66%
Second compound 3.16 µM, first compound 0.00949 µM
  viability, T/C: 49%
Second compound 3.16 µM, first compound 0.03 µM
  viability, T/C: 43.3%
Second compound 3.16 µM, first compound 0.0949 µM
  viability, T/C: 32.2%
Second compound 3.16 µM, first compound 0.3 µM
  viability, T/C: 23.2%
Second compound 10 µM, first compound 0.000949 µM
  viability, T/C: 10.7%
Second compound 10 µM, first compound 0.003 µM
  viability, T/C: 11.6%
Second compound 10 µM, first compound 0.00949 µM
  viability, T/C: 12.5%
Second compound 10 µM, first compound 0.03 µM
  viability, T/C: 11.7%
Second compound 10 µM, first compound 0.0949 µM
  viability, T/C: 9.62%
Second compound 10 µM, first compound 0.3 µM
  viability, T/C: 11%

## O=C(c1cc(Cc2n[nH]c(=O)c3ccccc23)ccc1F)N1CCN(C(=O)C2CC2)CC1 + Cc1ccccc1N=Nc1ccc(NC(=O)c2ccnn2C)c(C)c1
Second compound 0.1 µM
  pIC50: < 5.00
Second compound 0.316 µM
  pIC50: < 5.00
Second compound 1 µM
  pIC50: < 5.00
Second compound 3.16 µM
  pIC50: < 5.00
Second compound 10 µM
  pIC50: < 5.00
[1]
  viability, T/C: 90.3%
[2]
  viability, T/C: 92.8%
[3]
  viability, T/C: 109%
[4]
  viability, T/C: 101%
[5]
  viability, T/C: 97.2%
[6]
  viability, T/C: 78.5%
[7]
  viability, T/C: 89.6%
[8]
  viability, T/C: 84.2%
[9]
  viability, T/C: 109%
[10]
  viability, T/C: 90%
[11]
  viability, T/C: 83.5%
[12]
  viability, T/C: 85.2%
[13]
  viability, T/C: 106%
[14]
  viability, T/C: 105%
[15]
  viability, T/C: 90.4%
[16]
  viability, T/C: 93.8%
[17]
  viability, T/C: 88.6%
[18]
  viability, T/C: 85.5%
[19]
  viability, T/C: 114%
[20]
  viability, T/C: 99.3%
[21]
  viability, T/C: 104%
[22]
  viability, T/C: 94.1%
[23]
  viability, T/C: 81.1%
[24]
  viability, T/C: 83.1%
[25]
  viability, T/C: 123%
[26]
  viability, T/C: 121%
[27]
  viability, T/C: 109%
[28]
  viability, T/C: 89.3%
[29]
  viability, T/C: 94%
[30]
  viability, T/C: 85.7%
